Our source for the melting point values is a melting point compilation (Tetko et al.; mined from patent text by program, amines drawn as free bases though some values may be those of a salt).

Starred links: 1 amine or outer side, 2 acyl side, 3 side chain; linkers in the order of their positions; H or OH if unused. Residues, ends and D or L forms follow the SMILES beside them. Suc = O=C(CCC(=O)[*:2])[*:1]

The term melting point denotes the temperature, or range, at which the solid turns liquid. `CCNC(=O)C1CCCN1C(=O)C(C)NC(=O)C(C)NC(=O)CCC(=O)O` (stereo not drawn) (Suc-Ala-Ala-Pro-NHEt; configuration not given here) showed a melting point of 185 to 186 °C.
As for `N#Cc1cc(F)ccc1N1CCN(Cc2cn3cc(Cl)ccc3n2)CC1`, the melting point was in the range of 179 to 180 °C.
Then `O=[N+]([O-])c1ccc2ncnc(Nc3cc(Cl)c(Cl)cc3F)c2c1`, with 270 to 271 °C; and `O=C(O)C(c1ccc(Cl)cc1)C1CC1` (configuration not stated), with 95 to 96 °C; and `CC1(C)CCOCN1C(=O)C(Cl)Cl`, with 105 to 106 °C.
Regarding `COC(=O)N1CCC(c2n[nH]c3cc(Cl)ccc23)CC1`, the melting point was 132 to 134 °C.
As for `O=C(O)c1ccc(NC(=O)C(CS)Cc2ccccc2)cc1O` (configuration not stated), the figure is 166 to 170 °C.
As for `c1ccc(Cn2c(NC3CCN(C4CCCCC4)CC3)nc3ccccc32)cc1`, the figure is 143 °C.
Then `COc1cc(CCCC(=O)O)ccc1C`, with 69 to 70 °C; and `Nc1ccc(-c2nc3ccccc3s2)cc1Br`, with 160 to 161 °C.
Consider `CCCC(c1cc(C(=O)Nc2ccccc2)ccc1OCc1ccc(Br)cc1)n1ccnc1` (configuration not stated), for which the melting point lay within 159 to 166 °C.
On to `CCOC(=O)C1=Cc2cc(Cl)cc(I)c2OC1C(F)(F)F` (configuration not stated), for which the melting point is 92.1 to 93.9 °C.
As for `CCCN(CCC)C(=O)Cc1ccccc1Nc1c(Cl)cccc1Cl`, the figure is 84 to 86 °C; as for `CCn1cc(C(=O)O)c(=O)c2cc(F)c(N3CCOC(CN(C)C)C3)c(F)c21` (configuration not stated), 185 to 188 °C.
With `CCOC(=O)c1cnc2c(c(C)nc3cc(C)nn32)c1N1CCN(C)CC1`, the melting point fell in the range of 158 to 159 °C.
As for `CC(Br)C(=C(C#N)C#N)c1ccccc1` (configuration not stated), the figure is 103 to 104 °C; as for `CO[C@@H]1[C@@H](OC)[C@H](C)O[C@@H](OC(=O)Nc2ccc(-c3ccnc(-c4ccc(C(F)(F)F)cc4)n3)cc2)[C@@H]1OC`, 176 to 179 °C; as for `CCOC(=O)c1ncn2c1C1C=CCN1C(=O)c1c(F)cccc1-2` (configuration not stated), 200 to 201 °C.
Then `O=[N+]([O-])c1ccc(-c2cc3c(Oc4ccc(Cl)cc4)cncc3s2)cc1`, with 193 to 195 °C; and `CCCN(CCC)C1Cc2cccc3[nH]c(=O)n(c23)C1` (configuration not stated), with 190 to 192 °C; and `CC(Oc1cc(O)ccn1)C(F)(F)F` (configuration not stated), with 67 to 69 °C.
Compound `COC(=O)c1cc([N+](=O)[O-])c(N2CCSC2=N)c([N+](=O)[O-])c1` registered a melting point of 138 °C.
`CC(C)(C)OC(=O)COc1cc2cc(C(C)(C)O)sc2c(Cl)c1Cl` came in with a melting point of 137 to 138 °C.
Then `OCC1(c2ccccc2)COc2ccccc2O1` (configuration not stated), with 114 to 116 °C; and `CN(c1cccc2cc(C3=NCC4(CCN(CC(C)(C)O)CC4)S3)[nH]c12)S(=O)(=O)c1cccs1`, with 191 °C; and `CC(=O)N1CCC(CC(=O)c2ccc(Nc3ncnc4c3CCC4)cc2)CC1`, with 225 to 227 °C.
In turn, `CCC(=O)OCC1(COC(=O)CC)c2ccccc2-c2ccccc21` returned a melting point of 82 to 83 °C.
In turn, `CCCCNC(=O)N1CC(Oc2cccc(C(F)(F)F)c2)C1` returned a melting point of 108 to 109 °C.
As for `CCC(=NO)c1cc(Br)c(O)c(CN)c1`, the figure is 174 to 175 °C; as for `O=C(Nc1ccccc1)OC(c1cccnc1)C(Cl)(Cl)Cl` (configuration not stated), 146 °C.
Then `Cn1cc(C2=C(c3cccc(NCCO)c3)C(=O)NC2=O)c2ccccc21`, with 170 to 171 °C.
In turn, `CC(=O)Nc1ccc(C=C(C#N)C(=O)OCC[Si](C)(C)C)cc1` came in with a melting point of 136 °C.
As for `OC(Cc1ccc(Cl)cc1Cl)n1ccnc1` (configuration not stated), the figure is 139 to 141 °C; as for `Nc1nc2c3ccccc3ccn2n1`, 164 to 165 °C; as for `OCC(CO)(c1ccccc1)c1ccccc1`, 102 to 104 °C.
Turning to `COc1ccc(CCNC(=O)C(F)(F)F)cc1NC(C)=O`, the melting point is 105 to 106 °C.
Regarding `Cc1c(C)c2c(c(C)c1C=O)OC(C)(C)C2`, the melting point amounted to 93 °C.
